Measured values published in article PMC5883364 (Malaria Journal, 2018).
Read-outs that look alike come from different tables or passages of the source.

Experiments:
[1] = system: V79 (Chinese hamster lung) cells; details: for LD50 V79: Chinese hamster, 24 h; for Selectivity index LD50 (V79)/IC50 (3D7): V79 vs 3D7; for Selectivity index LD50 (V79)/IC50 (Dd2): V79 vs Dd2
Description: (§1) Cytotoxicity was assessed on the mammalian cell lines HepG2-A16 (human hepatoma) and V79 (Chinese hamster lung), using a MTT based assay, as previously described. […] V79 and HepG2 cell lines were incubated for 24 and 48 h, respectively (media changed at 24 h intervals). Absorbance was read at 570 nm on a multi-mode microplate reader (Triad, Dynex Technologies), to produce a log dose-dependence curve. The LD50 value for each compound was estimated by non-linear interpolation of the dose-dependence curve (GraphPad Software).

[2] = system: HepG2-A16 (human hepatoma) cells; details: for Selectivity index LD50 (HepG2)/IC50 (3D7): HepG2 vs 3D7; for Selectivity index LD50 (HepG2)/IC50 (Dd2): HepG2 vs Dd2; for LD50 HepG2: human, 48 h
Description: as §1

[3] = system: P. falciparum 3D7 (chloroquine and mefloquine sensitive); assay: SYBR Green I assay, IC50, strain 3D7; assay type: cell-based, Plasmodium falciparum; details: read-out: P. falciparum IC50 ± SD, 3D7
Description: (§2) Staging and parasitaemia were determined by light microscopy of Giemsa-stained thin blood smears. Anti-malarial activity was determined using the SYBR Green I assay, as previously described.

[4] = system: P. falciparum IPC4912 (artemisinin-resistant, K13 I543T); assay: SYBR Green I assay, IC50, strain IPC4912; assay type: cell-based, Plasmodium falciparum; details: for Resistance Index RIc = IC50 (IPC4912)/IC50 (3D7): IPC4912 vs 3D7; for IC50: Plasmodium falciparum, read-out: P. falciparum IC50 ± SD, IPC4912
Description: Staging and parasitaemia were determined by light microscopy of Giemsa-stained thin blood smears. Anti-malarial activity was determined using the SYBR Green I assay, as previously described. Briefly, early ring stage parasites (> 80% of rings) were challenged with a 1:3 serial dilution of each compound, in concentrations ranging from 10,000–0.169 nM. Fluorescence intensity was measured with a multi-mode microplate reader (Triad, Dynex Technologies), with excitation and emission wavelengths of 485 and 535 nm, respectively, and analysed by nonlinear regression using GraphPad Prism to determine IC50 values.

[5] = system: P. falciparum IPC5202 (artemisinin-resistant, K13 R539T); assay: SYBR Green I assay, IC50, strain IPC5202; assay type: cell-based, Plasmodium falciparum; details: for Resistance Index RIb = IC50 (IPC5202)/IC50 (3D7): IPC5202 vs 3D7; for IC50: Plasmodium falciparum, read-out: P. falciparum IC50 ± SD, IPC5202, strain IPC5202
Description: as §2

[6] = system: P. falciparum Dd2 (chloroquine-resistant, mefloquine-resistant); assay: SYBR Green I assay, IC50, strain Dd2; assay type: cell-based, Plasmodium falciparum; details: for IC50: read-out: P. falciparum IC50 ± SD, Dd2; for Resistance Index RIa = IC50 (Dd2)/IC50 (3D7): Dd2 vs 3D7
Description: as §2

[7] = Plasmodium falciparum, 3D7, strain 3D7
[8] = Plasmodium falciparum, DD2, strain Dd2

Row | Structure (SMILES) | LD50 V79 [1] [mM] | Selectivity index LD50 (V79)/IC50 (3D7) [1] | Selectivity index LD50 (V79)/IC50 (Dd2) [1] | Selectivity index LD50 (V79)/IC50 (IPC4912) ([1]; V79 vs IPC4912) | Selectivity index LD50 (V79)/IC50 (IPC5202) ([1]; V79 vs IPC5202) | Selectivity index LD50 (HepG2)/IC50 (3D7) [2] | Selectivity index LD50 (HepG2)/IC50 (Dd2) [2] | Selectivity index LD50 (HepG2)/IC50 (IPC4912) ([2]; HepG2 vs IPC4912) | Selectivity index LD50 (HepG2)/IC50 (IPC5202) ([2]; HepG2 vs IPC5202) | LD50 HepG2 [2] [mM] | IC50 [3, 7] [nM] | IC50 ([3]; strain 3D7) [nM] | Resistance Index RIc = IC50 (IPC4912)/IC50 (3D7) [4] | IC50 [4] [nM] | Resistance Index RIb = IC50 (IPC5202)/IC50 (3D7) [5] | IC50 [5] [nM] | IC50 [6, 8] [nM] | IC50 ([6]; strain Dd2) [nM] | Resistance Index RIa = IC50 (Dd2)/IC50 (3D7) [6]
1 | C[C@@H]1CC[C@H]2[C@@H](C)C(=O)O[C@@H]3O[C@@]4(C)CC[C@@H]1[C@]32OO4 [ART, artemisinin, reference compound] | > 0.4 | 104844.6 | 168515.4 | 31295.7 | 12499.5 | 104844.6 | 168515.4 | 31295.7 | 12499.5 | 0.4 | 4 ± 0.1 | 3.97 ± 0.08 | 3.32 | 13.3 ± 2.2 | 8.32 | 33.3 ± 8 | 2.5 ± 0.1 | 2.47 ± 0.1 | –
2 | C[C@H]1[C@H](OC(=O)CCC(=O)O)O[C@@H]2O[C@@]3(C)CC[C@H]4[C@H](C)CC[C@@H]1[C@@]24OO3 [ATN, artesunate, reference compound] | – | – | – | – | – | – | – | – | – | – | 5.1 ± 0.1 | – | 0.76 | 3.9 ± 1.2 | 0.67 | 3.4 ± 0.1 | 4.6 ± 1.4 | – | 0.9
3 | c1ccc(N2N=NNC23OOC2(O3)C3CC4CC(C3)CC2C4)cc1 (centres unmarked) [LC28] | > 1 | 273.3 | 887.3 | – | – | 273.3 | 887.3 | – | – | 1.0 | 3660 ± 1490 | – | – | – | – | – | 1130 ± 188 | – | 0.3
4 | O=S1(=O)N=C(Cl)c2ccccc21 [LC60, 3-chloro-1,2-benzisothiazole-1,1-dioxide] | > 1 | – | – | – | – | – | – | – | – | 1.0 | > 10000 | – | – | – | – | – | > 10000 | – | –
5 | CC(C)(C)OC(=O)NCCCCN [LC64, tert-butyl(4-aminobutyl)carbamate] | > 1 | – | – | – | – | – | – | – | – | 1.0 | > 10000 | – | – | – | – | – | > 10000 | – | –
6 | NCC1CCC2(CC1)OOC1(O2)C2CC3CC(C2)CC1C3 (centres unmarked) [LC95] | > 1 | 3441.7 | 1784.7 | – | – | 3441.7 | 1784.7 | – | – | 1.0 | 29.6 ± 5.18 | – | – | – | – | – | 56.3 ± 1 | – | –
